Reference: patent publication US5292733A, “Cephalosporin compounds” (Lucky Limited, priority 1991, dated 1994)
In brackets after ≈: the same amount, converted by molar mass.

How the values were obtained:
Experiment in all cases: Antibacterial activity MIC, two-fold agar dilution
Type in all cases: cell-based
[1] = test system: Acinetobacter calcoaceticus ATCC 15473; conditions: ATCC15473; Acinetobacter calcoaceticus ATCC 15473; Muller-Hinton agar, 37° C., 20 hours; read-out: Antibacterial Activity MIC
Experimental: (§1) These MIC values were taken by employing a two-fold dilution method: that is, two-fold serial dilutions of each of the test compounds were made and dispersed in a Muller-Hinton agar medium; 2 μl of the standard test strain which had the 10^7 CFU(Colony Forming Unit) per ml was inoculated on the medium; and these were incubated at 37° C. for 20 hours. The results of the MIC tests are shown Table 1.

[2] = test system: Bacillus cereus ATCC 11778; conditions: ATCC11778; Bacillus cereus ATCC 11778; Muller-Hinton agar, 37° C., 20 hours; read-out: Antibacterial Activity MIC
Experimental: as §1

[3] = test system: Bacillus megaterium ATCC 9885; conditions: Priestia megaterium, ATCC9885; Bacillus megaterium ATCC 9885; Muller-Hinton agar, 37° C., 20 hours; read-out: Antibacterial Activity MIC
Experimental: as §1

[4] = test system: Citrobacter freundii ATCC 8090; conditions: ATCC8090; Citrobacter freundii ATCC 8090; Muller-Hinton agar, 37° C., 20 hours; read-out: Antibacterial Activity MIC
Experimental: as §1

[5] = test system: Enterobacter aerogenes ATCC 29751; conditions: Klebsiella aerogenes, ATCC29751; Enterobacter aerogenes ATCC 29751; Muller-Hinton agar, 37° C., 20 hours; read-out: Antibacterial Activity MIC
Experimental: as §1

[6] = test system: Enterobacter cloacae ATCC 27508; conditions: ATCC27508; Enterobacter cloacae ATCC 27508; Muller-Hinton agar, 37° C., 20 hours; read-out: Antibacterial Activity MIC
Experimental: as §1

[7] = test system: Escherichia coli ATCC 10536; conditions: ATCC10536, Muller-Hinton agar, 37° C., 20 hours
Experimental: as §1

[8] = test system: Escherichia coli ATCC 25922; conditions: ATCC25922, Muller-Hinton agar, 37° C., 20 hours
Experimental: as §1

[9] = test system: Klebsiella pneumoniae ATCC 10031; conditions: ATCC10031; Klebsiella pneumoniae ATCC 10031; Muller-Hinton agar, 37° C., 20 hours; read-out: Antibacterial Activity MIC
Experimental: as §1

[10] = test system: Micrococcus luteus ATCC 9341; conditions: ATCC9341; Micrococcus luteus ATCC 9341; Muller-Hinton agar, 37° C., 20 hours; read-out: Antibacterial Activity MIC
Experimental: as §1

[11] = test system: Morganella morganii ATCC 8076h; conditions: ATCC8076H, Muller-Hinton agar, 37° C., 20 hours
Experimental: as §1

[12] = test system: Proteus mirabilis ATCC 25933; conditions: ATCC25933; Proteus mirabilis ATCC 25933; Muller-Hinton agar, 37° C., 20 hours; read-out: Antibacterial Activity MIC
Experimental: as §1

[13] = test system: Proteus vulgaris ATCC 6059; conditions: ATCC6059; Proteus vulgaris ATCC 6059; Muller-Hinton agar, 37° C., 20 hours; read-out: Antibacterial Activity MIC
Experimental: as §1

[14] = test system: Providencia rettgeri ATCC 9250; conditions: ATCC9250, Muller-Hinton agar, 37° C., 20 hours
Experimental: as §1

[15] = test system: Pseudomonas aeruginosa ATCC 10145; conditions: ATCC10145; Pseudomonas aeruginosa ATCC 10145; Muller-Hinton agar, 37° C., 20 hours; read-out: Antibacterial Activity MIC
Experimental: as §1

[16] = test system: Pseudomonas aeruginosa ATCC 25619; conditions: ATCC25619; Pseudomonas aeruginosa ATCC 25619; Muller-Hinton agar, 37° C., 20 hours; read-out: Antibacterial Activity MIC
Experimental: as §1

[17] = test system: Pseudomonas aeruginosa ATCC 27853; conditions: ATCC27853; Pseudomonas aeruginosa ATCC 27853; Muller-Hinton agar, 37° C., 20 hours; read-out: Antibacterial Activity MIC
Experimental: as §1

[18] = test system: Salmonella typhimurium ATCC 14028; conditions: Salmonella enterica; Salmonella typhimurium ATCC 14028; Muller-Hinton agar, 37° C., 20 hours; read-out: Antibacterial Activity MIC
Experimental: as §1

[19] = test system: Serratia marcescens ATCC 27117; conditions: ATCC27117; Serratia marcescens ATCC 27117; Muller-Hinton agar, 37° C., 20 hours; read-out: Antibacterial Activity MIC
Experimental: as §1

[20] = test system: Shigella flexneri ATCC 11836; conditions: ATCC11836, Muller-Hinton agar, 37° C., 20 hours
Experimental: as §1

[21] = test system: Shigella sonnei ATCC 11060; conditions: ATCC11060, Muller-Hinton agar, 37° C., 20 hours
Experimental: as §1

[22] = test system: Staphylococcus aureus ATCC 10537; conditions: ATCC10537; Staphylococcus aureus ATCC 10537; Muller-Hinton agar, 37° C., 20 hours; read-out: Antibacterial Activity MIC
Experimental: as §1

[23] = test system: Staphylococcus aureus ATCC 6538p; conditions: ATCC6538P; Staphylococcus aureus ATCC 6538p; Muller-Hinton agar, 37° C., 20 hours; read-out: Antibacterial Activity MIC
Experimental: as §1

[24] = test system: Staphylococcus epidermidis ATCC 12228; conditions: ATCC12228; Staphylococcus epidermidis ATCC 12228; Muller-Hinton agar, 37° C., 20 hours; read-out: Antibacterial Activity MIC
Experimental: as §1

[25] = test system: Streptococcus faecalis ATCC 29212; conditions: Enterococcus faecalis, ATCC29212; Streptococcus faecalis ATCC 29212; Muller-Hinton agar, 37° C., 20 hours; read-out: Antibacterial Activity MIC
Experimental: as §1

Row | Structure (SMILES) | MIC [1] | MIC [2] | MIC [3] | MIC [4] | MIC [5] | MIC [6] | MIC [7] | MIC [8] | MIC [9] | MIC [10] | MIC [11] | MIC [12] | MIC [13] | MIC [14] | MIC [15] | MIC [16] | MIC [17] | MIC [18] | MIC [19] | MIC [20] | other results
1 | CC[n+]1c(N)cc(SCC2=C(C(=O)[O-])N3C(=O)[C@@H](NC(=O)/C(=N\OC(C)C(=O)O)c4csc(N)n4)[C@H]3SC2)nc1N (stereo partly drawn) [Compound I-20, (6R,7R)-7-[(Z)-2-(2-aminothiazol-4-yl)-2-(R,S-carboxyeth-1-oxyimino)acetamido]-3-(2,6-diamino-1-ethylprimidinium-4-yl)thiomethyl-3cephem-4-carboxylate] | 8 µg/mL (≈ 12.8 µM) | 128 µg/mL (≈ 205 µM) | 0.25 µg/mL (≈ 0.401 µM) | 0.13 µg/mL (≈ 0.208 µM) | 1 µg/mL (≈ 1.6 µM) | 0.016 µg/mL (≈ 0.0257 µM) | 0.13 µg/mL (≈ 0.208 µM) | 0.13 µg/mL (≈ 0.208 µM) | 0.063 µg/mL (≈ 0.101 µM) | 0.25 µg/mL (≈ 0.401 µM) | ≤ 0.008 µg/mL | 0.063 µg/mL (≈ 0.101 µM) | 0.25 µg/mL (≈ 0.401 µM) | ≤ 0.008 µg/mL | 4 µg/mL (≈ 6.41 µM) | 1 µg/mL (≈ 1.6 µM) | 2 µg/mL (≈ 3.21 µM) | 0.5 µg/mL (≈ 0.802 µM) | 0.25 µg/mL (≈ 0.401 µM) | 0.016 µg/mL (≈ 0.0257 µM) | MIC [21]: 0.5 µg/mL (≈ 0.802 µM); MIC [22]: 4 µg/mL (≈ 6.41 µM); MIC [23]: 2 µg/mL (≈ 3.21 µM); MIC [24]: 4 µg/mL (≈ 6.41 µM); MIC [25]: 128 µg/mL (≈ 205 µM)
2 | CCO/N=C(\C(=O)N[C@@H]1C(=O)N2C(C(=O)[O-])=C(CSc3cc(N)[n+](C)c(N)n3)CS[C@H]12)c1nsc(N)n1 [Compound I-10, (6R,7R)-7-[(Z)-2-(5-amino-1,2,4-thiadiazol-3-yl)-2-(ethoxyimino)acetamido]-3-(2,6-diamino-1-methylpyrimidinium-4-yl)thiomethyl-3-cephem-4-carboxylate] | 4 µg/mL (≈ 7.06 µM) | 128 µg/mL (≈ 226 µM) | 0.13 µg/mL (≈ 0.229 µM) | 0.13 µg/mL (≈ 0.229 µM) | 0.25 µg/mL (≈ 0.441 µM) | 0.016 µg/mL (≈ 0.0282 µM) | 0.13 µg/mL (≈ 0.229 µM) | 0.25 µg/mL (≈ 0.441 µM) | ≤ 0.008 µg/mL | 0.016 µg/mL (≈ 0.0282 µM) | 0.016 µg/mL (≈ 0.0282 µM) | 0.25 µg/mL (≈ 0.441 µM) | 0.25 µg/mL (≈ 0.441 µM) | ≤ 0.008 µg/mL | 1 µg/mL (≈ 1.76 µM) | 0.5 µg/mL (≈ 0.882 µM) | 1 µg/mL (≈ 1.76 µM) | 0.063 µg/mL (≈ 0.111 µM) | 0.13 µg/mL (≈ 0.229 µM) | 0.031 µg/mL (≈ 0.0547 µM) | MIC [21]: 0.25 µg/mL (≈ 0.441 µM); MIC [22]: 0.5 µg/mL (≈ 0.882 µM); MIC [23]: 0.5 µg/mL (≈ 0.882 µM); MIC [24]: 0.25 µg/mL (≈ 0.441 µM); MIC [25]: 8 µg/mL (≈ 14.1 µM)
3 | CC(O/N=C(\C(=O)N[C@@H]1C(=O)N2C(C(=O)[O-])=C(CSc3cc(N)nc(N)[n+]3C)CS[C@H]12)c1csc(N)n1)C(=O)O (stereo partly drawn) [Compound I-3, (6R,7R)-7-[(Z)-2-(2-aminothiazol-4-yl)-2-(R,S-carboxyeth-1-oxyimino)acetamido]-3-(2,6-diamino-3-methylpyrimidinium-4-yl)thiomethyl-3-cephem-4-carboxylate] | 2 µg/mL (≈ 3.28 µM) | 64 µg/mL (≈ 105 µM) | 0.25 µg/mL (≈ 0.41 µM) | 0.13 µg/mL (≈ 0.213 µM) | 2 µg/mL (≈ 3.28 µM) | 0.016 µg/mL (≈ 0.0262 µM) | 0.13 µg/mL (≈ 0.213 µM) | 0.13 µg/mL (≈ 0.213 µM) | 0.031 µg/mL (≈ 0.0508 µM) | 0.5 µg/mL (≈ 0.82 µM) | ≤ 0.008 µg/mL | 0.31 µg/mL (≈ 0.508 µM) | 0.063 µg/mL (≈ 0.103 µM) | ≤ 0.008 µg/mL | 1 µg/mL (≈ 1.64 µM) | 1 µg/mL (≈ 1.64 µM) | 1 µg/mL (≈ 1.64 µM) | 0.5 µg/mL (≈ 0.82 µM) | 0.13 µg/mL (≈ 0.213 µM) | 0.031 µg/mL (≈ 0.0508 µM) | MIC [21]: 0.25 µg/mL (≈ 0.41 µM); MIC [22]: 4 µg/mL (≈ 6.56 µM); MIC [23]: 4 µg/mL (≈ 6.56 µM); MIC [24]: 2 µg/mL (≈ 3.28 µM); MIC [25]: > 128 µg/mL
4 | CCO/N=C(\C(=O)N[C@@H]1C(=O)N2C(C(=O)[O-])=C(CSc3cc(N)[n+](CC)c(N)n3)CS[C@H]12)c1nsc(N)n1 [Compound I-11, (6R,7R)-7-[(Z)-2-(5-amino-1,2,4-thiadiazol-3-yl)-2-(ethoxyimino)acetamido]-3-(2,6-diamino-1-ethylpyrimidinium-4-yl)thiomethyl-3-cephem-4-carboxylate] | 4 µg/mL (≈ 6.89 µM) | 128 µg/mL (≈ 220 µM) | 0.13 µg/mL (≈ 0.224 µM) | 0.063 µg/mL (≈ 0.108 µM) | 0.13 µg/mL (≈ 0.224 µM) | ≤ 0.008 µg/mL | 0.13 µg/mL (≈ 0.224 µM) | 0.25 µg/mL (≈ 0.431 µM) | ≤ 0.008 µg/mL | 0.016 µg/mL (≈ 0.0276 µM) | 0.016 µg/mL (≈ 0.0276 µM) | 0.5 µg/mL (≈ 0.861 µM) | 0.5 µg/mL (≈ 0.861 µM) | ≤ 0.008 µg/mL | 2 µg/mL (≈ 3.44 µM) | 0.5 µg/mL (≈ 0.861 µM) | 1 µg/mL (≈ 1.72 µM) | 0.063 µg/mL (≈ 0.108 µM) | 0.13 µg/mL (≈ 0.224 µM) | 0.031 µg/mL (≈ 0.0534 µM) | MIC [21]: 0.25 µg/mL (≈ 0.431 µM); MIC [22]: 0.5 µg/mL (≈ 0.861 µM); MIC [23]: 0.5 µg/mL (≈ 0.861 µM); MIC [24]: 0.25 µg/mL (≈ 0.431 µM); MIC [25]: 8 µg/mL (≈ 13.8 µM)
